Laboratory results from ChEMBL document CHEMBL3603746, “Discovery of New H2S Releasing Phosphordithioates and 2,3-Dihydro-2-phenyl-2-sulfanylenebenzo[d][1,3,2]oxazaphospholes with Improved Antiproliferative Activity” (J Med Chem, 2015).

Tests used:
[1] = Induction of H2S release in 10% PBS:MeCN solution at 1 mM incubated at 22 degC in dark condition measured at 72 hrs by 2, 6-dansyl azide probed-based fluorescence assay; assay type: physicochemical; settings: buffer, 1000 µM
[2] = Toxicity in human WI38 cells assessed as inhibition of cell proliferation after 4 days by crystal violet assay
[3] = Therapeutic index, ratio of IC50 for human WI38 cells to IC50 for human SKOV3 cells; settings: WI38 cells and SKOV3 cells
MCF7 [4] = test: Cytotoxicity against human MCF7 cells assessed as inhibition of cell proliferation after 4 days by crystal violet assay; assay type: functional, cell-based; settings: MCF7, 96 h
SK-OV-3 = test: Cytotoxicity against human SKOV3 cells assessed as inhibition of cell proliferation after 4 days by crystal violet assay; assay type: functional, cell-based; settings: SK-OV-3, 96 h
[5] = Induction of H2S release in 10% PBS:MeCN solution at 100 uM incubated at 37 degC in dark condition measured at 72 hrs by 2, 6-dansyl azide probed-based fluorescence assay; assay type: physicochemical; settings: buffer
[6] = Induction of H2S release in aqueous acetonitrile solution at 200 uM measured over 4 days by probe 21-based fluorescence assay; settings: buffer, 96 h
[7] = Effective permeability of the compound at 500 uM after 6 hrs by PAMPA; settings: for Papp at 6 h, 500 µM: PAMPA
[8] = Therapeutic index, ratio of IC50 for human WI38 cells to IC50 for human MBA-MD-231 cells; settings: WI38 cells and MBA-MD-231 cells
[9] = Induction of H2S release in 10% PBS:MeCN solution at 5 mM incubated at 22 degC in dark condition measured at 96 hrs by 2, 6-dansyl azide probed-based fluorescence assay relative to control; settings: buffer, 5000 µM
[10] = Induction of H2S release in aqueous acetonitrile solution at 400 uM measured over 4 days by probe 21-based fluorescence assay; settings: buffer, 96 h
Hepatocyte = test: Toxicity in transforming growth factor alpha transgenic mouse hepatocytes at 100 uM after 24 hrs by CellTiter-Glo cell viability assay; assay type: cell-based
[11] = Induction of H2S release in 10% PBS:MeCN solution assessed as ratio of H2S level at 37 degC to H2S level at 22 degC at 5 mM incubated in dark condition measured at 96 hrs by 2, 6-dansyl azide probed-based fluorescence assay; settings: buffer, 5000 µM
[12] = Effective permeability of the compound at 500 uM after 16 hrs by PAMPA
[13] = Induction of H2S release in 10% PBS:MeCN solution at 5 mM incubated at 37 degC in dark condition measured at 96 hrs by 1 mM 2, 6-dansyl azide probed-based fluorescence assay relative to control; settings: buffer, 5000 µM
[14] = Induction of H2S release in 10% PBS:MeCN solution at 5 mM incubated at 37 degC in dark condition measured at 96 hrs by 2, 6-dansyl azide probed-based fluorescence assay relative to GYY4137; assay type: physicochemical; settings: buffer, 5000 µM
[15] = Therapeutic index, ratio of IC50 for human WI38 cells to IC50 for human MCF7 cells; settings: WI38 cells and MCF7 cells
MDA-MB-231 = test: cells; assay type: functional, cell-based; settings: Homo sapiens, MDA-MB-231, 72 h
Description: Cytotoxicity against human MDA-MB-231 cells assessed as inhibition of cell proliferation after 72 hrs by MTS assay

[16] = Induction of H2S release in 10% PBS:MeCN solution at 5 mM incubated at 22 degC in dark condition measured at 96 hrs by 2, 6-dansyl azide probed-based fluorescence assay relative to GYY4137; assay type: physicochemical; settings: buffer, 5000 µM
[17] = Therapeutic index, ratio of IC50 for human WI38 cells to IC50 for human PC3 cells; settings: WI38 cells and PC3 cells
MCF7 [18] = test: cells; assay type: functional, cell-based; settings: Homo sapiens, MCF7, 72 h
Description: Cytotoxicity against human MCF7 cells assessed as inhibition of cell proliferation after 72 hrs by MTT assay

PC-3 = test: cells; assay type: functional, cell-based; settings: Homo sapiens, PC-3, 72 h
Description: Cytotoxicity against human PC3 cells assessed as inhibition of cell proliferation after 72 hrs by MTT assay

physchem [19] = settings: DMSO, pH 7.4
Description: Kinetic solubility of the compound in DMSO at pH 7.4 measured at 24 hrs by multiscreen filter paper-based UV absorbance analysis

[20] = Induction of H2S release in 10% PBS:MeCN solution at 5 mM incubated at 37 degC in dark condition measured at 96 hrs by 0.2 mM 2, 6-dansyl azide probed-based fluorescence assay relative to control; assay type: physicochemical; settings: buffer, 5000 µM
physchem [21] = settings: DMSO, pH 7.4; remark: listed apart in the source
Description: Kinetic solubility of the compound in DMSO at pH 7.4 measured at 3 hrs by multiscreen filter paper-based UV absorbance analysis

[22] = Induction of H2S release in 10% PBS:MeCN solution at 0.5 mM incubated at 22 degC in dark condition measured at 48 hrs by 2, 6-dansyl azide probed-based fluorescence assay relative to 12 uM of GYY4137; assay type: physicochemical; settings: buffer, 500 µM
[23] = Induction of H2S release in 10% PBS:MeCN solution at 0.5 mM incubated at 37 degC in dark condition measured at 48 hrs by 2, 6-dansyl azide probed-based fluorescence assay relative to 6.9 uM of GYY4137; assay type: physicochemical; settings: buffer, 500 µM
[24] = Induction of H2S release in 10% PBS:MeCN solution at 0.5 mM incubated at 37 degC in dark condition measured at 48 hrs by 1 mM 2, 6-dansyl azide probed-based fluorescence assay relative to control; assay type: physicochemical; settings: buffer, 500 µM
[25] = Induction of H2S release in 10% PBS:MeCN solution at 0.5 mM incubated at 22 degC in dark condition measured at 48 hrs by 2, 6-dansyl azide probed-based fluorescence assay relative to control; assay type: physicochemical; settings: buffer, 500 µM
[26] = Induction of H2S release in 10% PBS:MeCN solution assessed as ratio of H2S level at 37 degC to H2S level at 22 degC at 0.5 mM incubated in dark condition measured at 96 hrs by 2, 6-dansyl azide probed-based fluorescence assay; assay type: physicochemical; settings: buffer, 500 µM

SMILES | Activity [1] [µM] | IC50 at 4 days [2] [µM] | selectivity ratio [3] | IC50 (MCF7 [4]) [µM] | IC50 (SK-OV-3) [µM] | Activity [5] | selectivity ratio [8] | %max [9] [%] | Ratio [11] | fold change (FC) [14] | selectivity ratio [15] | IC50 (MDA-MB-231) [µM] | fold change (FC) [16] | selectivity ratio [17] | IC50 (MCF7 [18]) [µM] | %max [20] [%] | further results
Cc1ccc2c(c1)OP(=S)(c1ccc(Oc3ccccc3)cc1)N2 (stereo unspecified) | 39.2 | > 400 | 2 | 186 | 196 | 59.9 µM | – | – | – | – | – | – | – | – | – | – | –
C1COCCN1.S=P(S)(c1ccc(Oc2ccccc2)cc1)N1CCOCC1 (stereo unspecified) | – | 656 | 2 | 195 | 326 | – | 2 | 1.68 | 3.3 | 0.9 | 2 | 95.2 | 1.2 | 2 | 163 | – | Activity [6]: 4.14 µM; Papp at 6 h, 500 µM [7]: 0.015 ×10⁻⁶ cm/s; Activity [10]: 5.47 µM; Activity (Hepatocyte): Non-toxic; Papp at 16 h, 500 µM [12]: 0.013 ×10⁻⁶ cm/s; %max [13]: 5.54%; IC50 (PC-3): 102 µM
CCNCCOP(=S)(S)c1ccc(OC)cc1 (stereo unspecified) | – | – | – | > 400 | > 400 | – | – | < 0.01 | – | < 0.1 | – | > 500 | – | – | 481 | 0.03 | Papp at 6 h, 500 µM [7]: 0.013 ×10⁻⁶ cm/s; solubility kinetic at 24 h (physchem [19]): > 290 µg/mL; Papp at 16 h, 500 µM [12]: 0.0041 ×10⁻⁶ cm/s; solubility kinetic at 3 h (physchem [21]): > 290 µg/mL
C1COCCN1.S=P(S)(N1CCOCC1)N1CCOCC1 | – | 683 | 2.6 | 221 | 267 | – | 2.6 | – | – | – | 2.6 | 381 | – | 2.6 | 331 | – | fold change (FC) [22]: 56; fold change (FC) [23]: 110.4; Activity (Hepatocyte): Non-toxic; %max [24]: 76.2%; %max [25]: 67.2%; Ratio [26]: 1.1
COc1ccc(P(=S)(S)OCCCN)cc1 (stereo unspecified) | – | – | – | > 400 | > 400 | – | – | 0.02 | 2.7 | < 0.1 | – | > 500 | < 0.1 | – | > 500 | 0.06 | Papp at 6 h, 500 µM [7]: 0.007 ×10⁻⁶ cm/s; solubility kinetic at 24 h (physchem [19]): > 280 µg/mL; Papp at 16 h, 500 µM [12]: 0.0027 ×10⁻⁶ cm/s
COc1ccc(P(=S)(S)NCc2ccccc2)cc1.NCc1ccccc1 (stereo unspecified) | – | 208 | 2.3 | 84.2 | 89.9 | – | 2.3 | 2.19 | 2.3 | 0.8 | 2.3 | 41.1 | 1.5 | 2.3 | 82.4 | – | Activity [6]: 5.55 µM; Activity [10]: 10.29 µM; %max [13]: 5.07%; IC50 (PC-3): 31.9 µM
COc1ccc(P2(=S)Oc3ccccc3N2C)cc1 (stereo unspecified) | 2.1 | 92.5 | 2.1 | 42.6 | 44.2 | 10.1 µM | – | – | – | – | 2.1 | – | – | – | – | – | –
NCc1ccccc1.S=P(S)(NCc1ccccc1)NCc1ccccc1 | – | 266 | 1.4 | 145 | 189 | – | 1.4 | – | – | – | 1.4 | 104 | – | 1.4 | 218 | – | fold change (FC) [22]: 2; fold change (FC) [23]: 2.8; %max [24]: 1.9%; %max [25]: 2.4%; Ratio [26]: 0.8
C1COCCN1.COP(=S)(S)c1ccc(Oc2ccccc2)cc1 (stereo unspecified) | – | 347 | 1.9 | 181 | 165 | – | 1.9 | 0.06 | 2.7 | < 0.1 | 1.9 | 87 | < 0.1 | 1.9 | 202 | 0.16 | IC50 (PC-3): 73.1 µM
NCC1CCCCC1.S=P(S)(NCC1CCCCC1)NCC1CCCCC1 | – | 287 | 1 | 172 | 179 | – | 1 | – | – | – | 1 | > 500 | – | 1 | > 500 | – | fold change (FC) [22]: 6.8; fold change (FC) [23]: 31.6; %max [24]: 21.8%; %max [25]: 0.82%; Ratio [26]: 2.7
COc1ccc(P2(=S)Nc3cc(OC)ccc3O2)cc1 (stereo unspecified) | – | 115 | 2.9 | 39.4 | 30.2 | – | – | – | – | – | 2.9 | – | – | – | – | – | Activity ([1]; BLD = below limit of detection): BLD; Activity ([5]; BLD = below limit of detection): BLD
CN1c2ccccc2OP1(=S)c1ccccc1 (stereo unspecified) | 24.4 | 207 | 2.8 | 72.7 | 69.4 | 20.7 µM | – | – | – | – | 2.8 | – | – | – | – | – | –
C1COCCN1.CCCCOP(=S)(S)c1ccc(OC)cc1 (stereo unspecified) | – | 177 | 1.1 | 92 | – | – | 1.1 | 0.04 | 3.2 | < 0.1 | 1.1 | 77.6 | < 0.1 | 1.1 | 193 | 0.12 | IC50 (PC-3): 79.1 µM
C1COCCN1.COc1ccc(P(=S)(S)OC)cc1 (stereo unspecified) | – | – | – | 450 | 430 | – | – | 0.06 | 2.5 | < 0.1 | – | 216 | < 0.1 | – | 446 | 0.15 | Peff ([7]; pampa, 6 h, 500 µM): 0.003 ×10⁻⁷ cm/s; Activity (Hepatocyte): Non-toxic; Papp at 16 h, 500 µM [12]: 0.0031 ×10⁻⁶ cm/s; IC50 (PC-3): > 200 µM
COc1ccc(P2(=S)Nc3ccc(C)cc3O2)cc1 (stereo unspecified) | 59 | > 400 | 1.9 | 93.2 | 211 | 48.2 µM | – | – | – | – | – | – | – | – | – | – | –
C1COCCN1.COc1ccc(P(=S)(S)OC(C)C)cc1 (stereo unspecified) | – | > 400 | 1.5 | 266 | 200 | – | 1.5 | 0.04 | 3 | < 0.1 | 1.5 | 84.6 | < 0.1 | – | 205 | 0.12 | –
Fc1ccc2c(c1)NP(=S)(c1ccc(Oc3ccccc3)cc1)O2 (stereo unspecified) | 5 | 65.6 | 1.7 | 13.6 | 38.1 | Not Active | – | – | – | – | 1.7 | – | – | – | – | – | –
COc1ccc(P2(=S)Nc3ccccc3O2)cc1 (stereo unspecified) | 48.3 | 94.4 | 2.5 | 37.1 | 38.1 | 42.7 µM | – | – | – | – | 2.5 | – | – | – | – | – | –
COc1ccc(P2(=S)Nc3cc(F)ccc3O2)cc1 (stereo unspecified) | 53.8 | > 200 | 2.8 | 33.6 | 70.8 | 33.3 µM | – | – | – | – | – | – | – | – | – | – | –
